This note sets out measurements from PMC7570662, “In Vivo Pharmacokinetic Analysis Utilizing Non-Targeted and Targeted Mass Spectrometry and In Vitro Assay against Transient Receptor Potential Channels of Maobushisaishinto and Its Constituent Asiasari Radix” (Molecules, 2020).

The data set can be described thus: Qualitative non-targeted LC-HRMS analysis of AR compounds in rat plasma after oral AR or MBST. The class given is in vivo. The settings on record: for AR-Treated Rat Plasma (detection of compound): rat plasma 1 h after oral 2 g/kg AR, n = 1, LC-HRMS; for MBST-Treated Rat Plasma (detection of compound): rat plasma 1 h after oral 2 g/kg MBST, n = 3, LC-HRMS. The method, then: Extract powders of AR or MBST were suspended in distilled water and orally administered to rats having fasted for approximately 16 h. The dose of AR was set at 2 g/kg, and the MBST doses were set at 1 and 2 g/kg. 1 g/kg MBST contained 578 µg/kg, 147 µg/kg, 226 µg/kg, 426 µg/kg asarinin, sesamin, methyl kakuol, and amide A, respectively. The doses were chosen based on a previous pharmacological study of MBST using rats.
According to previous pharmacokinetic studies of herbal medicines, many of the components were quickly absorbed into the bloodstream, thereby providing the rationale for a sampling time at 1 h. Blood was centrifuged at 1200× g at 4 °C for 30 min to obtain plasma; then, the sample was stored at −80 °C until LC-HRMS analysis. […]
The plasma samples were collected at 1 h after MBST administration in case of both the qualitative (non-targeted) analysis and the quantitative (targeted) analysis.
The plasma samples of AR- or MBST-treated rats collected at 1 h post-administration were pretreated by deproteinization using methanol before the LC-HRMS analysis as follows: 100 µL plasma sample was mixed with 500 µL methanol, and the resultant solution was vortexed for 2 min. The mixture was centrifuged at 7000× g at 4 °C for 5 min. The supernatant was dried using a centrifugal evaporator, and the dried residue was dissolved in 100 μL of the initial LC mobile phase which is composed of 0.1 vol% formic acid in water/acetonitrile (99.9/0.1, v/v) and recentrifuged at 7000× g at 4 °C for 5 min. Finally, a 5 μL aliquot of the supernatant was injected into the LC-HRMS system comprised of an Acquity Ultra-Performance Liquid Chromatography System (Waters, Milford, MA, USA) and a Xevo G2-XS quadrupole time-of-flight MS (Waters) and was chromatographically separated using an ACQUITY UPLC HSS T3 column (2.1 × 150 mm I.D., 1.8-μm particle size; Waters) with an ACQUITY UPLC HSS T3 VanGuard Pre-column (2.1 mm × 5 mm I.D., 1.8-μm particle size; Waters) at 40 °C. The mobile phase consisted of solution A (0.1% formic acid, v/v) and solution B (acetonitrile) with a gradient of solution B (0.1%, 0 min; 99%, 24 min; v/v) at a flow rate of 0.4 mL/min. The analysis of the mass spectrometer fit with an electrospray ionization probe with sensitivity mode was performed for both the positive and negative ion mode. The resolution of the mass spectrometer was set at >20,000. For MS^E experiments, two acquisition functions with different collision energies were created: a low-energy function with a collision energy of 6 eV and a high-energy function with collision energy ranging from 15 to 40 eV.

In the case of `COc1cc(O)cc2c1cc([N+](=O)[O-])c1c(C(=O)O)cc3c(c12)OCO3` [Aristolochic acid Iva], the “AR-Treated Rat Plasma (detection of compound)” value (from here on “AR-Treated Rat Plasma”) was “+ (The number of plus signs represents the sample number in which the compound was detected among AR-treated rat plasma (n = 1) and MBST-treated rat plasma (n = 3))”; the “MBST-Treated Rat Plasma (detection of compound)” value was “+ + + (The number of plus signs represents the sample number in which the compound was detected among AR-treated rat plasma (n = 1) and MBST-treated rat plasma (n = 3))”.
In the case of `C=CCc1ccc(OC)cc1` [Estragole], the “AR-Treated Rat Plasma” value is “+ (The number of plus signs represents the sample number in which the compound was detected among AR-treated rat plasma (n = 1) and MBST-treated rat plasma (n = 3))”.
With `C/C=C/C=C\CC/C=C/C(=O)NCC(C)C` [Spilanthol], the “Detection in plasma of rats treated with AR or MBST (non-targeted analysis)” value (rat, in vivo, po) is recorded as “not detected”.
For “(2E,4E,9E)-8,11-Dihydroxy-N-isobutyl-2,4,9-dodecatrienamide, (2E,4E,8Z)-10,11-Dihydroxy-N-isobutyl-2,4,8-dodecatrienamide”, the “AR-Treated Rat Plasma” value was “+ (The number of plus signs represents the sample number in which the compound was detected among AR-treated rat plasma (n = 1) and MBST-treated rat plasma (n = 3))”; the “MBST-Treated Rat Plasma (detection of compound)” value is “+ + + (The number of plus signs represents the sample number in which the compound was detected among AR-treated rat plasma (n = 1) and MBST-treated rat plasma (n = 3))”.
